This is an account of results in US10974293B2, “Device for phyto-ecological monitoring” (priority 2014, dated 2021).

In this series the test system is lettuce. In kind it is in vivo, Lactuca vulgaris. Conditions: arsenic in water 0 to 100 ppm. The source says:
The arbuscular mycorrhizal spore germination and growth assay (a) consists of a glass slide (22) with a strip of blotter paper (25) of the same width as the glass slide overlain upon it. A semi-circle of gridded, nitrocellulose filter paper is laid on top of the blooter paper. Fungal spores are then placed into one or more segments of the grid, and then covered with a cover slip (not shown). The entire assembly is then held together using non-toxic retainer rings, or alternatively glued together with a non-toxic glue. When the glass slide assay is placed into the slider cartridge (21, FIG. 5) and then into the device of current invention, and deployed in the field and exposed to moisture, the spores produce hyphae, which can be quantitatively observed using optical microscope. The degree of branching of hyphae can be used as outcome of the assay and correlated with contaminants present in the soil and/or water. The small seed germination assay (b) (FIG. 6) also contains a glass slide with two layers of fitted blotter paper strips (25): first layer of fitied blotter paper is the strip without holes, and a second blotter paper strip which has holes of about 2-3 mm in diameter as shown in FIG. 6. Plant seeds (26) are placed in one or more holes, and the assembly is then covered with a standard laboratory cover slip and held together by a non-toxic retaining ring or a glue. […]

Where two headings read alike, the source gives them in different places.

With `[AsH3]` [arsenic], the “root growth response to arsenic exposure” value is, setting by setting: (horizontally grown seedlings) “not evident”; (vertically oriented seedlings) “hermetic response (enhanced growth at low concentrations of a toxicant)”.
